# Values quoted from earlier work, collected in patent US6670356B2, “Analogs of galanthamine and lycoramine as modulators of nicotinic receptors” (priority 1999, dated 2003).
# Assays:
# [1] = system: superior cervical ganglion; settings: cat
# [2] = system: nicotinic receptors of PC12 cells
Compound,Anticholinesterase activity relative to neostigmine or physostigmine (cholinesterase; quoted from the cited authors' discussion),"Preservation of the ganglionic surface potential ([1]; direct recordings, treated ganglia)","Inhibition of hexamethonium (C6) induced ganglionic blockade ([1]; intra-arterially, 250 micrograms)",Mode of action at nicotinic receptors ([2]; PC12 cells),Single channel activity after incubation with FK1 (competitive monoclonal antibody to physostigmine) ([2]; PC12 cells),Whole-cell currents evoked ([2]; PC12 cells),Channel activation ([2]; inside-out patches from PC 12 cells),"Twitch potentiating effects relative to neostigmine or physostigmine (gastrocnemius; nerve muscle preparation, quoted from the cited authors' discussion)",Twitch potentiation relative to neostigmine or physostigmine (gastrocnemius; quoted from the cited authors),"IC 50 for cholinesterase inhibition, times lower than for galanthamine (cholinesterase; rat brain, erythrocytes, or gastrocnemius homogenate)"
COc1ccc2c3c1O[C@H]1C[C@@H](O)C=C[C@@]31CCN(C)C2 [galanthamine],1/100,preservation of the surface potential is shown,substantially inhibited,noncompetitive agonists,neither physostigmine nor galanthamine could induce,do not evoke sizable whole-cell currents,cause some channel activation,1/10,1/10,
COc1ccc2c3c1O[C@H]1[C@@H](O)C=C[C@H]4[C@@H](C2)N(C)CC[C@@]341 [codeine],,,,,,do not evoke sizable whole-cell currents,,,,
CN(C)C(=O)Oc1cccc([N+](C)(C)C)c1 [neostigmine],,,,,,,,,,~200 times lower
